Test results published in the NIST ThermoML archive (doi:10.1021/je3012925).
± gives the expanded uncertainty stated by the source.

Experiments:
[1] = Liquid; for mass density: 293.15 K, 101.33 kPa, Vibrating tube method; for Normal boiling temperature: mercury-in-glass thermometers
[2] = refractive index (Na D-line) (dimensionless); settings: 293.15 K; 101.33 kPa; Liquid; Standard Abbe refractometry

| mass density [1] [kg/m3] | Normal boiling temperature [1] [°C] | refractive index [2] | Compound |
| --- | --- | --- | --- |
| 817.6 ± 0.2 | 128.12 ± 0.2 | 1.4096 ± 0.0007 | CCC(C)CO (centres undefined) [2-methyl-1-butanol] |
| 942.6 ± 0.3 | 153.06 ± 0.2 | 1.4328 ± 0.0007 | CN(C)C=O [dimethylformamide] |
| 873.5 ± 0.3 | 138.23 ± 0.2 | 1.4034 ± 0.0007 | CCC(C)COC(C)=O (centres undefined) [2-methylbutyl ethanoate] |
